Measured values reported in ChEMBL document CHEMBL2396653, “Synthesis and antimycobacterial evaluation of N-substituted 5-chloropyrazine-2-carboxamides” (Bioorg Med Chem Lett, 2013).
In brackets after ≈: the same amount, converted by molar mass. Activity calls are given as the source filed them. No cut-off for these calls is given here.

Assays:
Staphylococcus aureus [1] = experiment: Antibacterial activity against Staphylococcus aureus CCM 4516/08 assessed as growth inhibition after 24 to 48 hrs by microbroth dilution method; type: functional, organism-based
Mycobacterium avium [2] = experiment: Antimycobacterial activity against Mycobacterium avium CNCTC My 80/72 assessed as growth inhibition after 14 days by microdilution method; type: functional; conditions: CNCTC My 80/72, 336 h
[3] = tested on: Mycobacterium tuberculosis; experiment: Antimycobacterial activity against Mycobacterium tuberculosis H37Rv assessed as growth inhibition after 14 days by microdilution method; type: functional; conditions: 336 h
Candida albicans = experiment: Antifungal activity against Candida albicans ATCC 44859 assessed as growth inhibition after 24 to 48 hrs by microbroth dilution method; type: functional, organism-based
Candida tropicalis = experiment: Antifungal activity against Candida tropicalis 156 assessed as growth inhibition after 24 to 48 hrs by microbroth dilution method; type: functional, organism-based
Mycobacterium kansasii [4] = experiment: Antimycobacterial activity against Mycobacterium kansasii CNCTC My 235/80 assessed as growth inhibition after 14 days by microdilution method; type: functional; conditions: CNCTC My 235/80, 336 h
Trichosporon asahii = experiment: Antifungal activity against Trichosporon asahii 1188 assessed as growth inhibition after 24 to 48 hrs by microbroth dilution method; type: functional, organism-based
[5] = Lipophilicity, log K of the compound by HPLC analysis; type: physicochemical
Nakaseomyces glabratus = experiment: Antifungal activity against Candida glabrata 20/I assessed as growth inhibition after 24 to 48 hrs by microbroth dilution method; type: functional, organism-based
Pseudomonas aeruginosa = experiment: Antibacterial activity against Pseudomonas aeruginosa CCM 1961 assessed as growth inhibition after 24 to 48 hrs by microbroth dilution method; type: functional, organism-based
[6] = tested on: Trichophyton mentagrophytes; experiment: Antifungal activity against Trichophyton mentagrophytes 445 assessed as growth inhibition after 72 to 120 hrs by microbroth dilution method; type: functional, organism-based
Escherichia coli = experiment: Antibacterial activity against Escherichia coli CCM 4517 assessed as growth inhibition after 24 to 48 hrs by microbroth dilution method; type: functional, organism-based
Staphylococcus aureus [7] = experiment: Antibacterial activity against methicillin-resistant Staphylococcus aureus H 5996/08 clinical isolate assessed as growth inhibition after 24 to 48 hrs by microbroth dilution method; type: functional, organism-based
[8] = Stability of the compound at pH 7; type: physicochemical; conditions: buffer
Pichia kudriavzevii = experiment: Antifungal activity against Candida krusei E28 assessed as growth inhibition after 24 to 48 hrs by microbroth dilution method; type: functional, organism-based
Enterococcus = experiment: Antibacterial activity against Enterococcus sp. J 14365/08 clinical isolate assessed as growth inhibition after 24 to 48 hrs by microbroth dilution method; type: functional, organism-based
Klebsiella pneumoniae [9] = experiment: Antibacterial activity against Klebsiella pneumoniae D 11750/08 clinical isolate assessed as growth inhibition after 24 to 48 hrs by microbroth dilution method; type: functional, organism-based
[10] = tested on: Mycobacterium tuberculosis; experiment: Ratio of pyrazinamide MIC to compound MIC for Mycobacterium tuberculosis H37Rv; type: functional
Lichtheimia corymbifera = experiment: Antifungal activity against Absidia corymbifera 272 assessed as growth inhibition after 24 to 48 hrs by microbroth dilution method; type: functional, organism-based
Mycobacterium avium [11] = experiment: Antimycobacterial activity against Mycobacterium avium CNCTC My 152/73 assessed as growth inhibition after 14 days by microdilution method; type: functional; conditions: CNCTC My 152/73, 336 h
[12] = tested on: Staphylococcus epidermidis; experiment: Antibacterial activity against Staphylococcus epidermidis H 6966/08 clinical isolate assessed as growth inhibition after 24 to 48 hrs by microbroth dilution method; type: functional, organism-based
Klebsiella pneumoniae [13] = experiment: Antibacterial activity against ESBL-positive Klebsiella pneumoniae J 14368/08 clinical isolate assessed as growth inhibition after 24 to 48 hrs by microbroth dilution method; type: functional, organism-based
Aspergillus fumigatus = experiment: Antifungal activity against Aspergillus fumigatus 231 assessed as growth inhibition after 24 to 48 hrs by microbroth dilution method; type: functional, organism-based
[14] = tested on: Mycobacterium tuberculosis; experiment: Antimycobacterial activity against pyrazinamide-susceptible Mycobacterium tuberculosis ATCC 35801 assessed as growth inhibition after 24 hrs to 2 weeks by microbroth dilution method; type: functional
[15] = tested on: Mycobacterium tuberculosis; experiment: Antimycobacterial activity against pyrazinamide-susceptible Mycobacterium tuberculosis ATCC 27294 assessed as growth inhibition after 24 hrs to 2 weeks by microbroth dilution method; type: functional
[16] = tested on: Mycolicibacterium fortuitum; experiment: Antimycobacterial activity against pyrazinamide-resistant Mycobacterium fortuitum ATCC 49403 assessed as growth inhibition after 24 hrs to 2 weeks by microbroth dilution method; type: functional
Mycobacterium kansasii [17] = experiment: Antimycobacterial activity against pyrazinamide-resistant Mycobacterium kansasii assessed as growth inhibition after 24 hrs to 2 weeks by microbroth dilution method; type: functional
[18] = tested on: Mycolicibacterium fortuitum; experiment: Antimycobacterial activity against pyrazinamide-resistant Mycobacterium fortuitum ATCC 49601 assessed as growth inhibition after 24 hrs to 2 weeks by microbroth dilution method; type: functional

Compound | growth inhibition (GI) (Staphylococcus aureus [1]) | MIC (Mycobacterium avium [2]) [µg/mL] | MIC [3] [µg/mL] | growth inhibition (GI) (Candida albicans) | growth inhibition (GI) (Candida tropicalis) | MIC (Mycobacterium kansasii [4]) [µg/mL] | growth inhibition (GI) (Trichosporon asahii) | log K [5] | growth inhibition (GI) (Nakaseomyces glabratus) | growth inhibition (GI) (Pseudomonas aeruginosa) | growth inhibition (GI) [6] | growth inhibition (GI) (Escherichia coli) | growth inhibition (GI) (Staphylococcus aureus [7]) | Stability [8] | growth inhibition (GI) (Pichia kudriavzevii) | growth inhibition (GI) (Enterococcus) | growth inhibition (GI) (Klebsiella pneumoniae [9]) | Ratio [10] | growth inhibition (GI) (Lichtheimia corymbifera) | MIC (Mycobacterium avium [11]) [µg/mL] | further results
O=C(NCc1ccc(Br)cc1)c1cnc(Cl)cn1 | inactive | > 100 | 12.5 (≈ 38.3 µM) | inactive | inactive | 50 (≈ 153 µM) | inactive | 0.4981 | inactive | inactive | inactive | inactive | inactive | Stable | inactive | inactive | inactive | 3 | inactive | > 100 | growth inhibition (GI) [12]: inactive; growth inhibition (GI) (Klebsiella pneumoniae [13]): inactive; growth inhibition (GI) (Aspergillus fumigatus): inactive
NC(=O)c1cnc(Cl)cn1 |  |  |  |  |  |  |  |  |  |  |  |  |  |  |  |  |  |  |  |  | MIC [14]: 16 µg/mL (≈ 102 µM); MIC [15]: 16 µg/mL (≈ 102 µM); MIC [16]: 8 µg/mL (≈ 50.8 µM); MIC (Mycobacterium kansasii [17]): 8 µg/mL (≈ 50.8 µM); MIC [18]: 8 µg/mL (≈ 50.8 µM)
O=C(NCc1ccc(Cl)cc1Cl)c1cnc(Cl)cn1 | inactive | > 100 | 12.5 (≈ 39.5 µM) | inactive | inactive | > 100 | inactive | 0.727 | inactive | inactive | inactive | inactive | inactive | Stable | inactive | inactive | inactive | 3 | inactive | > 100 | growth inhibition (GI) [12]: inactive; growth inhibition (GI) (Klebsiella pneumoniae [13]): inactive; growth inhibition (GI) (Aspergillus fumigatus): inactive
